Experiments:
Aedes aegypti = assay: Warm Body assay, mosquito landings on treated warm body; type: in vivo; details: Aedes aegypti; for pest or weed control at 16 µg/mL: 0.016 mg/mL (Table 3); for pest or weed control at 16 µg/mL / pest or weed control at 400 µg/mL / pest or weed control at 10000 µg/mL: read-out: Percentage of repellence of mosquitoes Aedes aegypti landing on the warm body; for pest or weed control at 400 µg/mL: 0.4 mg/mL (Table 3); for pest or weed control at 10000 µg/mL: 10 mg/mL (Table 3); for pest or weed control at 1 %: highest tested concentration, 1% (Table 3); for pest or weed control at 1 % / pest or weed control at 0.04 %: read-out: repellence; for pest or weed control at 0.04 %: intermediate concentration of 0.04% (Table 3); for pest or weed control at 0.0016 %: lowest concentration of 0.0016% (Table 3), read-out: reduce the number of mosquito landings
Method: The arthropod controlling effect according to the present invention is determined on mosquitoes using an adapted Warm Body assay as defined in Kröber T, Kessler S, Frei J, Bourquin M, Guerin PM. An in vitro assay for testing mosquito controlling compounds employing a warm body and carbon dioxide as a behavioral activator. J Am Mosq Control Assoc. 2010; 26: 381-386. Further information is provided in the accompanying examples
The controlling effect, repellence & spatial repellence, according to the present invention is determined by testing the Warm Body assay against the yellow fever mosquito, Aedes aegypti Rockefeller strain. […] Observations of controlling efficacy were made on host-seeking females of uniform age, 5 to 10 days old selected as mentioned in the publication mentioned hereinabove. Tested hungry females had access to 10% sugar solution but were not blood-fed. Further information is provided in the accompanying examples.
The published protocol has been adapted in not manually counting the landing mosquitoes but automatically using an automatic counting software, the switch from Anopheles gambiae to A. aegypti led to a decrease of mosquitoes' number placed in the tested cage due to the size difference (i.e. 30 mosquitoes instead of 50) and to an increase of lighting as A. aegypti is a diurnal mosquitoes (i.e. 150 lux instead of 4 lux). Further information is provided in the accompanying examples. […]
(§1) The controlling effect according to the present invention was assessed using an adapted Warm Body assay as defined in Kröber T, Kessler S, Frei J, Bourquin M, Guerin P M. 2010. J Am Mosq Control Assoc. 26: 381-386. In this in-vitro assay the number of mosquito landing on a warm body, simulating an attractive host treated with the tested stimuli, was measured in order to assess the repellence effect.
The published protocol has been adapted as the switch from Anopheles gambiae to Aedes aegypti led to a decrease of mosquitoes placed in the tested cage due to the size difference (i.e. 30 mosquitoes instead of 50) and to an increase of lighting since A. aegypti is a diurnal mosquitoes (i.e. 150 lux instead of 4 lux).
(§2) On the sandblasted glass Petri dish covering the warm body (28.3 cm^2), 100 μL of the compounds diluted at different concentrations in ethanol was applied. The number of mosquito landing on the warm body was counted for each stimulus and pure ethanol (solvent) as control.

Anopheles gambiae = assay: as above; type: in vivo; details: Anopheles gambiae, read-out: Percentage of repellence of mosquitoes Anopheles gambiae landing on the warm body; for pest or weed control at 178 µg/mL: 0.178 mg/mL (Table 4); for pest or weed control at 267 µg/mL: 0.267 mg/mL (Table 4); for pest or weed control at 400 µg/mL: 0.4 mg/mL (Table 4); for pest or weed control at 4470 µg/mL: 4.47 mg/mL (Table 4); for pest or weed control at 10000 µg/mL: 10 mg/mL (Table 4)
Method: Anopheles gambiae is also a model organism as it is anthropophilic and transmits malaria.
as §1, §2

Ixodes ricinus = assay: Warm Plate assay, tick repellence
[1] = Ixodes ricinus, read-out: Percentage of repellence of ticks Ixodes ricinus on the warm plate

Compound	pest or weed control at 16 µg/mL (Aedes aegypti) [%]	pest or weed control at 400 µg/mL (Aedes aegypti) [%]	pest or weed control at 10000 µg/mL (Aedes aegypti) [%]	pest or weed control at 178 µg/mL (Anopheles gambiae) [%]	pest or weed control at 267 µg/mL (Anopheles gambiae) [%]	pest or weed control at 400 µg/mL (Anopheles gambiae) [%]	pest or weed control at 4470 µg/mL (Anopheles gambiae) [%]	pest or weed control at 10000 µg/mL (Anopheles gambiae) [%]	pest or weed control at 1 % (Aedes aegypti) [%]	pest or weed control at 0.04 % (Aedes aegypti) [%]	repellence of ticks Ixodes ricinus (Ixodes ricinus; 1% of stimulus applied (Table 9))	pest or weed control at 400 µg/mL (Ixodes ricinus; [1]) [%]	pest or weed control at 2000 µg/mL (Ixodes ricinus; [1]) [%]	pest or weed control at 10000 µg/mL (Ixodes ricinus; [1]) [%]	pest or weed control at 0.0016 % (Aedes aegypti) [%]
CCCc1ccc2c(c1)OC(C(C)=O)O2 (stereo not shown) [compound 908, 1-(5-propyl-1,3-benzodioxol-2-yl)ethanone]	10	37	85	61	95	51	74	84	–	–	–	–	–	–	–
CC=Cc1cccc(OC)c1OC [compound 1125, 1,2-dimethoxy-3-prop-1-enylbenzene]	32	78	92	–	–	–	–	–	> 90	> 75	above 90%	25	36.4	91.7	–
CC(C)c1ccc2c(c1)OCC(=O)CO2 [compound 1232, isopropyl-2H,4H-1,5-benzodioxepin-3-one, 7-]	0	32	86	27	34	65	91	86	–	–	–	–	–	–	–
CCOc1cc(COC)ccc1O [compound 1271, 2-ethoxy-4-(methoxymethyl)phenol]	29	84	96	–	–	–	95	92	> 90	> 75	–	–	–	–	–
COc1cc(C(C)=O)ccc1O [compound 1468, 1-(4-hydroxy-3-methoxyphenyl)ethanone]	64	74	90	–	–	–	59	79	–	–	–	–	–	–	> 50
COc1ccc(CC(=O)O)cc1OC [compound 1564, 2-(3,4-dimethoxyphenyl)acetic acid]	24	69	82	42	58	9	97	97	–	–	–	–	–	–	–
COc1cc(C(=O)O)cc(OC)c1O [compound 2270, 4-hydroxy-3,5-dimethoxybenzoic acid]	67	62	87	–	–	–	–	–	–	–	–	–	–	–	> 50
CCOc1cc(C=O)ccc1OC [compound 2272, 3-ethoxy-4-methoxybenzaldehyde]	0	77	89	–	–	–	–	–	–	> 75	–	–	–	–	–
CCOc1c(OC)cccc1OC [compound 2276, 2-ethoxy-1,3-dimethoxybenzene]	0	0	98	–	–	–	–	–	> 90	–	–	–	–	–	–

— patent US20250113823A1, “Arthropod Control Compositions” (priority 2022, published 2025)
